Experiments:
[1] = system: GHRH-stimulated GH release, primary cultures of rat anterior pituitary cells; assay: Inhibition of GHRH-induced GH release in rat pituitary primary cell culture; type: cell-based; settings: rat GHRH 3x10^-9 M, 3 h 37 °C, GH by ELISA
[2] = system: NFPAs of MENX (homozygous mutant) rats; assay: In vivo efficacy against endogenous NFPAs in MENX rats; parameters: species or system rat; settings: 12.5 mg/kg s.c. every 14 days, 56 days
Method: Tumor monitoring in rats was conducted using MRI at day 0 (pretreatment) and every 14 days post-treatment (days 14, 28, 42, 56). MRI was performed on a 7T preclinical scanner (Bruker BioSpin MRI GmbH, Ettlingen, Germany) using previously published procedures suitable to visualize the rat pituitary tumors. In the T2 weighted datasets, regions of interest (ROIs) were manually segmented around the adenomas in every slice where they appeared; tumor volumes were finally calculated from the data (area of particular ROIs and slice thickness) using an implemented algorithm in Osirix/Horos (Pixmeo SARL/Horos Project) as previously described.
RNA was extracted using RNeasy Mini Kit (Qiagen, Cluj-Napoca, Romania) following the manufacturer’s instructions. Total RNA concentration and purity was assessed using Nanodrop 2000 spectrophotometer (Thermo Scientific, Waltham, MA, USA). Total RNA was retrotranscribed using random hexamer primers and the cDNA First Strand Synthesis kit (Thermo Scientific). Details regarding the quantitative PCR (qPCR) procedure used to determine the absolute expression levels of the different somatostatin receptor genes (Sstr1-5) have been previously reported. Specific sets of primers for these genes have been previously validated and reported. To control for the amount of RNA and for the efficiency of the retrotranscription reaction, mRNA copy numbers of the different transcripts analyzed were adjusted by β-actin (ACTB) expression (used as housekeeping gene).
Ki67-positive tumor cells per 100,000 µm^2 were counted under the microscope in 3 independent areas for each tumor sample.
Linear mixed-effects (LME) models were applied for longitudinal analysis of tumor volume growth, with absolute tumor volume at day 0 used for scaling subsequent measurements of each individual, as previously reported. Relative volumes were transformed by natural logarithms for use as model outcomes in order to meet the normal distributional assumptions. Linear and quadratic growth predictors and interactions were considered for significance testing, performed by the F-test, with results presented as the mean ± standard error of the mean (SEM). Statistical significance between two series of data was determined by one-way ANOVA. A p value < 0.05 was considered statistically significant.

κ (KOP) = assay: Single-dose binding assay on κ opioid receptor; settings: 10^−5 M
hSSTR3 = biological target: T1, hSSTR3 (Homo sapiens, UniProt P32745); assay: Radioligand binding to human SSTR3; settings: from binding IC50
T1 construct: expressed in transfected cells; host or cells: CHO-K1 (membranes)
Method: Data were analyzed with XLfit (IDBS) software (version 5.3.1.3) using nonlinear regression applied to a sigmoidal dose–response model. Agonist activity of test compounds is expressed as a percentage of the activity of the reference agonist at its EC100 concentration.
After 60 min at 25°C in a water bath, samples were ﬁltered over GF/B ﬁlters (Perkin
Elmer, 6005177) presoaked in 0.5% PEI for 2h at RT) with a Filtermate Harvester (Perkin
Elmer ). Filters were washed 6 times with 0.5 ml of ice-cold ﬁltration buﬀer, incubated 15
min. on an orbital shaker with 50 µl of Microscint 20 (Packard) and counted for
radioactivity with a TopCountTM or MicroBetaTM for 1 min/well.
Dose-response curve were performed for each SSTR (agonist range 10-11 – 3x10-7 M),
Each point was performed in duplicate2,3
Dose-response data from test compounds were analysed with XLﬁt (IDBS) software
using nonlinear regression applied to a sigmoidal dose-response model.
Agonist activity of test compounds is expressed as a percentage of the activity of the
reference agonist at its EC100 concentration.

HA-tagged SSTR5 = assay: SSTR5 internalization in HEK293 cells, confocal microscopy; type: cell-based, human; settings: 1 µM agonist, 30 min 37 °C
Method: (§1) HEK293 cells obtained from DSMZ (Braunschweig, Germany) were transfected with plasmid encoding […] HA-tagged SSTR2, SSTR3 or SSTR5 receptors.
(§2) HEK293 cells stably expressing HA-tagged hSSTR cultures were preincubated with anti-HA antibody for 2 h at 4 °C and then exposed to 1 µM agonist for 30 min at 37 °C before fixing and further labeling with Alexa488-conjugated secondary antibody. After mounting with Roti®-MountFluorCare DAPI, cultures were examined using a Zeiss LSM510 META laser scanning confocal microscope (Zeiss, Jena, Germany) (see Supplementary Materials for details).
(§3) GH produced by primary cultures was tested by ELISA assay using Rat Growth Hormone Biotrak Enzyme immunoassay Mouse/Rat Growth ELISA (DSL-10-72100) or Rat/Mouse Growth Hormone ELISA (Millipore EZRMGH-45K) diluting supernatants 1:20, according to manufacturer’s instructions. […]
(§4) U2OS recombinant cell lines were obtained from Innoprot (Derio, Spain). […] Nuclei were stained using DAPI (2 μg/ml) and the ﬂuorescence was measured using a BD Pathway 855 High-Content Bioimager from Becton Dickinson. The receptor internalization was calculated using AttoVision Software. […]
(§5) Agonist activity of test compounds was calculated relatively to positive control

HA-SSTR3 = assay: SSTR3 internalization in HEK293 cells, confocal microscopy; type: cell-based, human; settings: 1 µM agonist, 30 min 37 °C
Method: as §1, §2, §3, §4, §5

NOP (ORL1) (h) = assay: Single-dose binding assay on NOP receptor; parameters: species or system human; settings: 10^−5 M

T1 sequence (P32745 whole entry): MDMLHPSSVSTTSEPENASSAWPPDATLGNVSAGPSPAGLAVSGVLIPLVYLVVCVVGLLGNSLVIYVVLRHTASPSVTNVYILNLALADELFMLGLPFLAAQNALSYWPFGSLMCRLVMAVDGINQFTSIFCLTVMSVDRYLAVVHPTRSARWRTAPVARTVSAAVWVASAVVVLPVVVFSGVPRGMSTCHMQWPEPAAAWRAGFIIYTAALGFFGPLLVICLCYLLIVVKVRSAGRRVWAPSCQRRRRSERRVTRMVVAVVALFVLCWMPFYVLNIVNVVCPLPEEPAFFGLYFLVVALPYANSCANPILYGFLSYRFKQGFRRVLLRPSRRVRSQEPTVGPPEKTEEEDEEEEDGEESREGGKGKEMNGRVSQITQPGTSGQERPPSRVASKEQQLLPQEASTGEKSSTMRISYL

SMILES: COc1cc2cccc(OC)c2cc1C[C@H]1NC(=O)[C@H](Cc2ccc(O)cc2)NC(=O)[C@@H]2C[C@@H](OC(=O)NCCN)CN2C(=O)[C@H](Cc2ccccc2)NC(=O)[C@H](Cc2ccc(OCc3ccccc3)cc2)NC(=O)[C@H](CCCCN)NC1=O [ITF2984, Cyclo[Tyr(Bn)-Phe-Pro(4-OCONH(CH2)2NH2)-Tyr-3,8-diMeONal-Lys]]
- GH release (inhibition ≅ 1 nM) [1]: 50%
- change in number of Ki67-positive cells versus placebo, female rats ([2]; female MENX rats): −57%
- tumor volume during treatment (MRI), female rats ([2]; female MENX rats, MRI every 14 days): only a slight increase in tumor volume
- number of Ki67-positive cells per area, average, female rats ([2]; female MENX rats, placebo 312): 134 cells per 100,000 mm^2
- change in number of Ki67-positive cells versus placebo, male rats ([2]; male MENX rats): −33.5%
- number of Ki67-positive cells per area, average, male rats ([2]; male MENX rats, placebo 375): 250 cells per 100,000 mm^2
- Percentage of inhibition of opioid receptor κ (KOP) (agonist) (κ (KOP)): 97%
- improved affinity for SSTR3 compared to Octreotide or Pasireotide (hSSTR3): 10 fold
- internalization of SSTR5 in transfected HEK293 cells (HA-tagged SSTR5): partial internalization
- internalization of SSTR3 in transfected HEK293 cells (HA-SSTR3): strong internalization
- Percentage of inhibition of opioid receptor NOP (ORL1) (h) (agonist) (NOP (ORL1) (h)): 61%
